According to patent US20040121398A1 (priority 2000, published 2004):

Columns and labels:
VTII and Bcl-2 = test: Far Western blotting of VTII/Bcl-2 complex formation (B10 cell extract, biotinylated VTII); assay type: binding, human; settings: extract of Bcl-2-expressing B10 cells, biotinylated VTII, in the presence of NWGRI
B10 cells = assay type: cell-based, human

## NWGRI
VTII and Bcl-2
  complex formation of VTII and Bcl-2: interrupted the complex formation of VTII and Bcl-2 in a dose dependent manner
B10 cells
  induction of apoptotic cell death by VTII: suppressed
